In data set [1] the test system is Giardia lamblia. The experiment in a line: In vitro anti-G. lamblia activity (50% inhibition of growth, viable cell count). Format: cell-based. The note with it: Giardia duodenalis, 37° C., anaerobic, about 16-24 hrs (Example 1: 24 hours), vs DMSO controls, read-out: Anti-G. lamblia ED50. On the procedure:
(§1) About 1.0-2.0 ml of a nutrient medium, for example, the modified Diamond's TPS medium at pH 7.05, together with about 10% by volume of heat-inactivated serum and about 1% by volume of antibiotic-antimycotic solution is placed in each well of a multiwell plate. To this mixture, an aliquot of a suspension of G. lamblia cells containing about […] is added. Subsequently, each well is inoculated with a known concentration of one of the active compounds, for example, 1-(3,4-dichlorocinnamylideneamino)-3-(4-cyanobenzylideneamino)guanidine. The multiwell plate containing the individual culture samples is incubated under anaerobic conditions at about 37° C. for about 16-24 hrs. The number of viable cells remaining in each well are then counted, such as with a hemacytometer. The percentage of survival is determined by comparison to controls inoculated with DMSO (dimethylsulfoxide) and the effective concentration (in parts per million) for 50% inhibition of growth (ED50) is determined. It is established that the lower the number of the value of ED50, the higher the activity of the active compound.
In each well of a multiwell plate is placed 1.4 ml of media mix containing Diamond's TPS medium (see Table 2) at pH 7.05, 10% by volume of heat-inactivated fetal bovine serum, and 1% by volume of an antibiotic-antimycotic solution (see Table 3). A suspension of Giardia lamblia is centrifuged at 2,500 xg. for 6 minutes. The cells are resuspended in a small volume of the Diamond's medium, counted, and each well inoculated with approximately 10^6 organisms. A stock solution of 1-(4-chlorocinnamylideneamino)-3-(3,4-dichlorobenzylideneamino)guanidine in dimethylsulfoxide is made at a concentration of 150 μg/ml. The wells are then inoculated with various concentrations of the drug. The plates are incubated for 24 hours at 37° C. in an anaerobic Gas Pak jar. After 24 hours of incubation each well is mixed and counted for viable organisms using a hemacytometer. The percentage of survival is determined by comparing the treated wells to controls treated with dimethylsulfoxide.
Employing substantially the similar procedure as described in Example 1 but substituting for 1-(4-chlorocinnamylideneamino)-3-(3,4-dichlorobenzylideneamino)guanidine used therein other active compounds, there are obtained similar results indicating the anti- G. lamblia activities of the compounds included above in Table 1.

Data set [2] deals with T. vaginalis 30001. The experiment in a line: In vitro anti-T. vaginalis activity (50% inhibition of growth). As to conditions: for IC50: Trichomonas vaginalis. Format: cell-based, Trichomonas vaginalis. Here is the method: The activity of these compounds against Giardia lamblia and Trichomonas vaginalis are shown by the following test:
as §1
Employing essentially the same method of Example 1, centrifuged cells of T. vaginalis 30001 are inoculated with 1-(4-chlorocinnamylideneamino)-3-(3,4-dichlorobenzylideneamino)guanidine at 37° C. for 24 hours.
Similarly, previously described compounds (2) to (10) and the pharmaceutically acceptable salts thereof an active anti- T. vaginalis agents as shown in Table 1.

Data set [3] relates to Giardia lamblia. The note with it: New York Times, June 10, 1980; cited from earlier work.
The conditions of data set [4]: cited from earlier work.
Data set [5] has as its system Trichomonas vaginalis. As to conditions: has been reported; cited from earlier work.
Data set [6] relates to animals. As to conditions: cited from earlier work.
Where [7] appears, read: in vitro, 37° C., 24 hours, Table 1, read-out: Anti-T. vaginalis ED50.

In brackets after ≈: the same amount, converted by molar mass. Like-named read-outs stand apart in the source and are kept apart here. Bounds are passed on as bounds.

Regarding `N=C(NN=CC=Cc1ccc(Cl)cc1)NN=Cc1ccc(Cl)c(Cl)c1` [(1), 1-(4-chlorocinnamylideneamino)-3-(3,4-dichlorobenzylideneamino)guanidine], the IC50 in data set [1] came to 1.1 µg/mL (≈ 2.79 µM); in data set [2] (Example 2, 37° C. for 24 hours, unit inferred, read-out: ED50 value, anti-T. vaginalis), 2.25 µg/mL (≈ 5.7 µM). Further, the “anti-T. vaginalis activity in words” value in data set [2] (in vitro, method of Example 1/2) is “effective anti- T. vaginalis agent”.

For the compound `CN(N=Cc1ccc(Cl)cc1)C(=N)NN=CC=Cc1ccc(C(F)(F)F)cc1` [(2), 1-(4-trifluoromethylcinnamylideneamino)-3-(4-chlorobenzylideneamino)-3-methylguanidine], the IC50 worked out at 0.8 µg/mL (≈ 1.96 µM) in data set [1] and 2.75 µg/mL (≈ 6.74 µM) in data set [2] (setting [7]).

`CN(N=Cc1ccc(Cl)cc1)C(=N)NN=CC=Cc1ccc(C#N)cc1` [(3), 1-(4-cyanocinnamylideneamino)-3-(4-chlorobenzylideneamino)-3-methyl-guanidine]: the figures for the IC50 in data set [1] and in data set [2] (setting [7]) were 0.85 µg/mL (≈ 2.33 µM) and 3.25 µg/mL (≈ 8.91 µM), respectively.

Regarding `CN(N=Cc1ccc(Cl)cc1)C(=N)NN=CC=Cc1ccc(Cl)c(Cl)c1` [(4), 1-(3,4-dichlorocinnamylideneamino)-3-(4-chlorobenzylideneamino)-3-methyl-guanidine], the IC50 in data set [1] was 0.58 µg/mL (≈ 1.42 µM); in data set [2] (setting [7]) it was 2.5 µg/mL (≈ 6.12 µM).

Consider `CN(N=Cc1ccc(C(F)(F)F)cc1)C(=N)NN=CC=Cc1ccc(C#N)cc1` [(5), 1-(4-cyanocinnamylideneamino)-3-(4-trifluoromethylbenzylideneamino)-3-methyl-guanidine], for which the figures for the IC50 in data set [1] and in data set [2] (setting [7]) were 1.5 µg/mL (≈ 3.77 µM) and 3.25 µg/mL (≈ 8.16 µM), respectively.

Regarding `CN(N=Cc1ccc(C(F)(F)F)cc1)C(=N)NN=CC=Cc1ccc(Cl)c(Cl)c1` [(6), 1-(3,4-dichlorocinnamylideneamino)-3-(4-trifluoromethylbenzylideneamino)-3-methyl-guanidine], the IC50 is 0.73 µg/mL (≈ 1.65 µM) in data set [1] and 2.67 µg/mL (≈ 6.04 µM) in data set [2] (setting [7]).

As for `N#Cc1ccc(C=NNC(=N)NN=CC=Cc2ccc(Cl)c(Cl)c2)cc1` [(7), 1-(3,4-dichlorocinnamylideneamino)-3-(4-cyanobenzylideneamino)guanidine], the IC50 was 0.57 µg/mL (≈ 1.48 µM) in data set [1] and 1 µg/mL (≈ 2.6 µM) in data set [2] (setting [7]).

As for `CN(N=Cc1ccc(Cl)cc1)C(=N)NN=CC=Cc1ccc(Cl)cc1` [(8), 1-(4-chlorocinnamylideneamino)-3-(4-chlorobenzylideneamino)-3-methyl-guanidine], the IC50 stood at 1.4 µg/mL (≈ 3.74 µM) in data set [1] and 2.67 µg/mL (≈ 7.13 µM) in data set [2] (setting [7]).

For the compound `CN(N=Cc1ccc(C(F)(F)F)cc1)C(=N)NN=CC=Cc1ccc(Cl)cc1` [(9), 1-(4-chlorocinnamylideneamino)-3-(4-trifluoromethylbenzylideneamino)-3-methyl-guanidine], the IC50 in data set [1] turned out to be 1.3 µg/mL (≈ 3.19 µM); in data set [2] (setting [7]), 2.38 µg/mL (≈ 5.84 µM).

With `CN(N=Cc1ccc([N+](=O)[O-])cc1)C(=N)NN=CC=Cc1ccc(C(F)(F)F)cc1` [(10), 1-(4-trifluoromethylcinnamylideneamino)-3-(4-nitrobenzylideneamino)-3-methyl-guanidine], the values for the IC50 in data set [1] and in data set [2] (setting [7]) were 1 µg/mL (≈ 2.39 µM) and 3.25 µg/mL (≈ 7.77 µM), respectively.

Turning to `CCN(CC)CCCC(C)Nc1c2ccc(Cl)cc2nc2ccc(OC)cc12` (stereo not shown) [Atabrine], the treatment of giardiasis entry in data set [3] is reported as “successfully treated”. In addition, the adverse side effects result in data set [4] (in vivo) is recorded as “known to cause adverse side effects”.

As for `Cc1ncc([N+](=O)[O-])n1CCO` [Flagyl (metronidazole), metronidazole], the IC50 in data set [1] is 6.2 µg/mL (≈ 36.2 µM); in data set [2] (setting [7]) it was under 1 µg/mL. Moreover, the treatment of giardiasis result in data set [3] was “successfully treated”. In data set [5], the therapy of trichomoniasis entry is “Successful therapy”. The carcinogenicity entry in data set [6] is reported as “carcinogenic in animals”. In addition, in data set [4] (in vivo), the adverse side effects result is “known to cause adverse side effects”.

For the compound `O=C1OCCN1/N=C/c1ccc([N+](=O)[O-])o1` [furazolidone], in data set [3], the treatment of giardiasis entry is reported as “successfully treated”. Also, the adverse side effects result in data set [4] (New York Times, June 10, 1980) was “known to cause adverse side effects”.

The record behind these values is patent publication US4321274A, “Substituted 1-(cinnamylideneamino)-3-benzyli-deneaminoguanidines active against Giardia lamblia and Trichomonas vaginalis” (priority 1980, dated 1982).
